One test relates to Venturia inaequalis. Briefly: Fungicidal activity against Venturia inaequalis grown under potato-saccharose agar assessed as inhibition of mycelial radial growth at 30 mg/l incubated for 72 hrs. It is filed as functional. Particulars: read-out: GI; call rule not given here.
The subject of the next test is Rhizoctonia solani. Briefly: Fungicidal activity against Rhizoctonia solani grown under potato-saccharose agar assessed as inhibition of mycelial radial growth at 30 mg/l incubated for 72 hrs. It is filed as functional. Particulars: read-out: GI.
The test system of a further test is Fusarium oxysporum. Briefly: Fungicidal activity against Fusarium oxysporum grown under potato-saccharose agar assessed as inhibition of mycelial radial growth at 30 mg/l incubated for 72 hrs. It is filed as functional. Particulars: read-out: GI.
In the next test the test system is Fusarium verticillioides. Description: Fungicidal activity against Fusarium moniliforme grown under potato-saccharose agar assessed as inhibition of mycelial radial growth at 30 mg/l incubated for 72 hrs. It counts as functional. Particulars: read-out: GI.
The test system of another test is Bipolaris sorokiniana. Description: Fungicidal activity against Bipolaris sorokiniana grown under potato-saccharose agar assessed as inhibition of mycelial radial growth at 30 mg/l incubated for 72 hrs. It is filed as functional. The following applies: read-out: GI.
For another test, the system named is Sclerotinia sclerotiorum. Description: Fungicidal activity against Sclerotinia sclerotiorum grown under potato-saccharose agar assessed as inhibition of mycelial radial growth at 30 mg/l incubated for 72 hrs. Particulars: read-out: GI. It counts as functional.
Another test relates to RD. Briefly: Cytotoxicity in human RD cells assessed as inhibition of cell growth incubated for 72 hrs by MTT assay. It is filed as functional, cell-based. Background: Tetrazolium assays rely on reduction of a dye to a coloured formazan, in cell work by metabolically active cells.
A further test relates to A549. Description: Cytotoxicity in human A549 cells assessed as inhibition of cell growth incubated for 72 hrs by MTT assay. It is filed as functional, cell-based. Particulars: A549, 72 h.
Test [1] in a line: Cytotoxicity in human […] cells assessed as inhibition of cell growth incubated for 72 hrs by MTT assay. It is filed as functional, cell-based.
For the next test, the system named is MCF7. Briefly: Cytotoxicity in human MCF7 cells assessed as inhibition of cell growth incubated for 72 hrs by MTT assay. It counts as functional, cell-based. Particulars: MCF7, 72 h.
The test system of a further test is HEK293. Briefly: Cytotoxicity in human HEK293 cells assessed as inhibition of cell growth incubated for 72 hrs by MTT assay. It is filed as cell-based.
The mark [2] stands for this setting: Homo sapiens, HEK293, 72 h, read-out: IC50.

Some results are limits rather than exact numbers.

One may read the IC50 as the concentration needed to halve the response being measured.

Take `COc1ccccc1/C=C/C=N/N1C(SC)=NC2C1N(C)C(=O)N2C` (stereo unspecified): the inhibition of growth at 30 µg/mL with Venturia inaequalis is 13%; with Rhizoctonia solani, 56%; in the test on Fusarium oxysporum it was 20%; with Fusarium verticillioides, 14%; with Bipolaris sorokiniana it was 33%; in the test on Sclerotinia sclerotiorum it was 13%.
Consider `CSC1=NC2C(N(C)C(=O)N2C)N1/N=C/C=C/c1ccco1` (stereo unspecified), for which the inhibition of growth at 30 µg/mL is 19% in the test on Venturia inaequalis; 27% in the test on Rhizoctonia solani; 34% in the test with Fusarium oxysporum; 51% with Fusarium verticillioides; 34% in the test with Bipolaris sorokiniana; 11% in the test on Sclerotinia sclerotiorum.
For the molecule `CCN1C(=O)N(CC)C2C1NC(=S)N2/N=C/C=C/c1ccccc1[N+](=O)[O-]` (stereo unspecified), the IC50 is 15.2 µM with RD; > 100 µM in the test with A549; 7.71 µM in [1]; 43.9 µM in the test on MCF7; 19.3 µM in the test with HEK293 (setting [2]).
As for `CCN1C(=O)N(CC)C2C1N=C(SC)N2/N=C/C=C/c1ccc(OC)cc1` (stereo unspecified), the inhibition of growth at 30 µg/mL in the test with Venturia inaequalis came out at 13%; in the test on Rhizoctonia solani it was 76%; in the test with Fusarium oxysporum, 32%; in the test on Fusarium verticillioides, 32%; in the test on Bipolaris sorokiniana, 64%; with Sclerotinia sclerotiorum it was 12%.
In the case of `CCN1C(=O)N(CC)C2C1NC(=O)N2/N=C/C=C/c1ccccc1` (stereo unspecified), the IC50 was 2.02 µM with RD; 44.3 µM with A549; 18.3 µM in [1]; 83.2 µM in the test on MCF7; “Not Active” with HEK293 (hek293).
`COc1cccc2c1C(=O)c1c(O)c3c(c(O)c1C2=O)C[C@@](O)(C(=O)CO)C[C@@H]3O[C@H]1C[C@H](N)[C@H](O)[C@H](C)O1` [DOXORUBICIN]: the IC50 in the test on RD amounted to 0.53 µM; in the test on A549, 0.53 µM; in test [1] it was 0.19 µM; with MCF7, 0.56 µM; with HEK293 (setting [2]) it was 2.1 µM.
`CCSC1=NC2C(N(C)C(=O)N2C)N1/N=C/C=C/c1ccccc1` (stereo unspecified): the inhibition of growth at 30 µg/mL with Venturia inaequalis stood at 28%; in the test on Rhizoctonia solani, 80%; in the test on Fusarium oxysporum, 70%; with Fusarium verticillioides, 71%; with Bipolaris sorokiniana it was 48%; with Sclerotinia sclerotiorum it was 32%.
For the molecule `CSC1=NC2C(N(C)C(=O)N2C)N1/N=C/C=C/c1ccccc1` (stereo unspecified), the inhibition of growth at 30 µg/mL in the test on Venturia inaequalis was 9%; in the test on Rhizoctonia solani, 45%; with Fusarium oxysporum, 71%; in the test with Fusarium verticillioides, 73%; with Bipolaris sorokiniana it was 50%; in the test with Sclerotinia sclerotiorum it was 17%.
In the case of `CCN1C(=O)N(CC)C2C1NC(=O)N2/N=C/C=C/c1ccccc1[N+](=O)[O-]` (stereo unspecified), the IC50 in the test with RD is 1.93 µM; in the test with A549 it was > 100 µM; in test [1], 9.63 µM; with MCF7, 88 µM; in the test on HEK293 (setting [2]), 42.9 µM.
For the molecule `COc1ccc(/C=C/C=N/N2C(=S)NC3C2N(C)C(=O)N3C)cc1` (stereo unspecified), the half-maximal inhibitory concentration (IC50) was > 100 µM with RD, > 100 µM with A549, 99.1 µM in [1] and > 100 µM in the test on MCF7.
`CN1C(=O)N(C)C2C1N=C(SCc1ccc(Cl)cc1)N2/N=C/C=C/c1ccccc1` (stereo unspecified): the inhibition of growth at 30 µg/mL was determined as 18% in the test on Venturia inaequalis; 28% in the test with Rhizoctonia solani; 46% with Fusarium oxysporum; 57% in the test on Fusarium verticillioides; 49% in the test on Bipolaris sorokiniana; 17% with Sclerotinia sclerotiorum.
Consider `CN1C(=O)N(c2ccccc2)C2NC(=S)N(/N=C/C=C/c3ccccc3)C21` (stereo unspecified), for which the IC50 is 1.69 µM in the test with RD; > 100 µM in the test on A549; 12.1 µM in test [1]; > 100 µM in the test on MCF7; 167 µM in the test with HEK293 (setting [2]).
Regarding `CC(/C=N/N1C(=S)NC2C1N(C)C(=O)N2C)=C\c1ccccc1` (stereo unspecified), the IC50 was 84 µM in the test with RD, 49.4 µM in the test with A549, 75.9 µM in [1] and > 100 µM with MCF7. In addition, the inhibition of growth at 30 µg/mL in the test with Venturia inaequalis was determined as 28%; in the test with Rhizoctonia solani it was 82%; in the test on Fusarium oxysporum it was 29%; with Fusarium verticillioides, 20%; in the test with Bipolaris sorokiniana, 9%; in the test on Sclerotinia sclerotiorum, 11%.
On to `CCN1C(=O)N(CC)C2C1N=C(SCc1ccc(Cl)cc1)N2/N=C/C=C/c1ccccc1OC` (stereo unspecified), for which the inhibition of growth at 30 µg/mL came to 21% in the test on Venturia inaequalis; 19% with Rhizoctonia solani; 8% with Fusarium oxysporum; 13% with Fusarium verticillioides; 36% with Bipolaris sorokiniana; 14% with Sclerotinia sclerotiorum.
With `CCN1C(=O)N(CC)C2C1NC(=S)N2/N=C/C(C)=C/c1ccccc1` (stereo unspecified), the IC50 was 20 µM with RD, > 100 µM in the test on A549, 26.6 µM in [1] and 35.1 µM in the test on MCF7. The inhibition of growth at 30 µg/mL in the test on Venturia inaequalis came to 25%; in the test with Rhizoctonia solani it was 34%; with Fusarium oxysporum it was 23%; with Fusarium verticillioides, 41%; in the test with Bipolaris sorokiniana, 7%; with Sclerotinia sclerotiorum, 5%.
Regarding `COc1ccc(/C=C/C=N/N2C(SC)=NC3C2N(C)C(=O)N3C)cc1` (stereo unspecified), the inhibition of growth at 30 µg/mL in the test on Venturia inaequalis stood at 13%; in the test on Rhizoctonia solani it was 74%; in the test with Fusarium oxysporum it was 24%; with Fusarium verticillioides, 36%; in the test with Bipolaris sorokiniana, 50%; with Sclerotinia sclerotiorum it was 19%.
In the case of `CCN1C(=O)N(CC)C2C1N=C(SC)N2/N=C/C=C/c1ccccc1[N+](=O)[O-]` (stereo unspecified), the IC50 with RD was 41.9 µM; with A549, > 100 µM; in [1], 65.6 µM; in the test on MCF7, 66.7 µM.
In the case of `CN1C(=O)N(C)C2C1NC(=O)N2/N=C/C=C/c1ccccc1` (stereo unspecified), the inhibition of growth at 30 µg/mL with Venturia inaequalis was 18%; with Rhizoctonia solani, 92%; in the test on Fusarium oxysporum it was 6%; with Fusarium verticillioides it was 9%; in the test with Bipolaris sorokiniana, 5%; with Sclerotinia sclerotiorum it was 12%.
With `CC(C)(C)C(=O)C(Oc1ccc(Cl)cc1)n1cncn1` (stereo unspecified) [TRIADIMEFON], the inhibition of growth at 30 µg/mL in the test with Venturia inaequalis is 60%; in the test with Rhizoctonia solani it was 52%; in the test with Fusarium oxysporum it was 64%; with Fusarium verticillioides, 61%; in the test on Bipolaris sorokiniana it was 76%; with Sclerotinia sclerotiorum, 61%.
In the case of `CN1C(=O)N(C)C2C1N=C(SCc1ccc(Cl)cc1)N2/N=C/C=C/c1ccco1` (stereo unspecified), the inhibition of growth at 30 µg/mL in the test on Venturia inaequalis stood at 10%; in the test with Rhizoctonia solani, 42%; in the test on Fusarium oxysporum, 33%; with Fusarium verticillioides, 42%; in the test with Bipolaris sorokiniana it was 40%; with Sclerotinia sclerotiorum, 19%.
`CN1C(=O)N(C)C2C1NC(=S)N2/N=C/C=C/c1ccccc1` (stereo unspecified): the IC50 is 46 µM in the test with RD, 45.6 µM in the test on A549, 43 µM in [1] and > 100 µM with MCF7.
As for `CSC1=NC2C(N(C)C(=O)N2C)N1/N=C/C=C/c1ccccc1[N+](=O)[O-]` (stereo unspecified), the IC50 (with RD; in the test on A549; in test [1]; in the test with MCF7) was > 100 µM each time. In addition, the inhibition of growth at 30 µg/mL amounted to 10% in the test with Venturia inaequalis; 49% in the test on Rhizoctonia solani; 20% with Fusarium oxysporum; 19% in the test on Fusarium verticillioides; 36% in the test with Bipolaris sorokiniana; 13% in the test on Sclerotinia sclerotiorum.
Take `CCN1C(=O)N(CC)C2C1NC(=S)N2/N=C/C=C/c1ccc(OC)cc1` (stereo unspecified): the IC50 in the test on RD is 87 µM; with A549, 17.2 µM; in test [1] it was 17.4 µM; in the test on MCF7 it was 36.6 µM. Further, the inhibition of growth at 30 µg/mL with Venturia inaequalis was 14%; in the test on Rhizoctonia solani it was 26%; in the test on Fusarium oxysporum, 18%; in the test on Fusarium verticillioides it was 23%; with Bipolaris sorokiniana, 19%; in the test on Sclerotinia sclerotiorum, 0%.
On to `CSC1=NC2C(N(C)C(=O)N2c2ccccc2)N1/N=C/C=C/c1ccccc1` (stereo unspecified), for which the inhibition of growth at 30 µg/mL is 24% with Venturia inaequalis; 32% with Rhizoctonia solani; 25% in the test with Fusarium oxysporum; 16% in the test on Fusarium verticillioides; 56% with Bipolaris sorokiniana; 0% with Sclerotinia sclerotiorum.
Take `CCSC1=NC2C(N(CC)C(=O)N2CC)N1/N=C/C=C/c1ccccc1` (stereo unspecified): the inhibition of growth at 30 µg/mL was found to be 30% in the test with Venturia inaequalis; 67% in the test with Rhizoctonia solani; 61% in the test with Fusarium oxysporum; 63% in the test with Fusarium verticillioides; 77% with Bipolaris sorokiniana; 29% with Sclerotinia sclerotiorum.
As to `CSC1=NC2C(N(C)C(=O)N2c2ccccc2)N1/N=C/C=C/c1ccccc1[N+](=O)[O-]` (stereo unspecified), the inhibition of growth at 30 µg/mL in the test on Venturia inaequalis was determined as 16%; with Rhizoctonia solani, 12%; in the test on Fusarium oxysporum, 10%; in the test with Fusarium verticillioides it was 9%; in the test with Bipolaris sorokiniana it was 37%; with Sclerotinia sclerotiorum, 17%.

The record behind these values is ChEMBL document CHEMBL4190345, “Synthesis and biological evaluation of new substituted thioglycolurils, their analogues and derivatives” (Eur J Med Chem, 2017).
